In patent US11345681B1, “Inhibitors of fibroblast growth factor receptor kinases” (Kinnate Biopharma Inc., priority 2020, dated 2022):
Read-outs that look alike come from different tables or passages of the source.

Molecular target: Wild type FGFR2 (Homo sapiens (Human), UniProt P21802)
Assay: FGFR2 kinase assay (fluorescence-based microfluidic mobility shift assay)
Format: biochemical
[1] = wild type FGFR2 0.06 nM, 100 μM ATP, 80 minutes at room temperature, given as numeric bound
[2] = wild type FGFR2 0.06 nM, 100 μM ATP, 80 minutes at room temperature, class symbols

Wild type FGFR2, sequence (P21802 22-821): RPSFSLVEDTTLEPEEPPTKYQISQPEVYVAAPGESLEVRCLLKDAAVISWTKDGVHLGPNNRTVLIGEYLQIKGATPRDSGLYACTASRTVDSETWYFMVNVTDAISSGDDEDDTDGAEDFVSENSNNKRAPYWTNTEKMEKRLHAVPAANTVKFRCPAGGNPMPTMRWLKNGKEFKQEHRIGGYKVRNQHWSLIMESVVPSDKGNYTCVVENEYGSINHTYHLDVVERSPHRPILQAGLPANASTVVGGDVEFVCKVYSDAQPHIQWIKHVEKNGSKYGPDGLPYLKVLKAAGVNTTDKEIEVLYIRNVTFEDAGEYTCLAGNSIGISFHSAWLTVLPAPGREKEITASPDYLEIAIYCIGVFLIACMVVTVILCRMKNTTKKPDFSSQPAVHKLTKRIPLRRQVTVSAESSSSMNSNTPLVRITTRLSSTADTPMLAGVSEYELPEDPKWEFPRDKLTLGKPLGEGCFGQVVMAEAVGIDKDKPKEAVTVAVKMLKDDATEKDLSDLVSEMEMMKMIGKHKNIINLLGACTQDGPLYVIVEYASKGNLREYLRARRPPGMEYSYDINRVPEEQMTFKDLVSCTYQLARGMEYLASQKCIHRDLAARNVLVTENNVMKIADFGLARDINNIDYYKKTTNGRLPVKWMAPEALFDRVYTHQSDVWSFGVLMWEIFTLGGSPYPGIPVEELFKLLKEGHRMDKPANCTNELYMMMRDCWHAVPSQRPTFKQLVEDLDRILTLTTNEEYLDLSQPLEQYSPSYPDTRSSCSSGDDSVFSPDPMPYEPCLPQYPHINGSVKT

SMILES | IC50 [2] [nM] | further results
C=CC(=O)N1C[C@@H](n2nc(C#Cc3ccc4ncnn4c3)c(C(N)=O)c2NC)C[C@@H]1COC [Example 106, 1-[(3S,5R)-5-(Methoxymethyl)-1-(Prop-2-enoyl)pyrrolidin-3-yl]-5-(methylamino)-3-(2-[[1,2,4]triazolo[1,5-a]pyridin-6-yl]ethynyl)pyrazole-4-carboxamide] | – | IC50 [1]: > 500 nM
C=CC(=O)N1C[C@@H](n2nc(C#Cc3ccn4c(C)cnc4c3)c(C(N)=O)c2NC)C[C@@H]1COC [Example 75, 1-[(3S,5R)-5-(Methoxymethyl)-1-(prop-2-enoyl)pyrrolidin-3-yl]-5-(methylamino)-3-(2-[3-methylimidazo[1,2-a]pyridin-7-yl]ethynyl)pyrazole-4-carboxamide] | ≤ 100 | –
C=CC(=O)N1C[C@@H](n2nc(C#Cc3ccc4c(c3)nc(C(F)(F)F)n4CC)c(C(N)=O)c2NC)C[C@@H]1COC [Example 27, 1-((3S,5R)-1-acryloyl-5-(methoxymethyl)pyrrolidin-3-yl)-3-((1-ethyl-2-(trifluoromethyl)-1H-benzo[d]imidazol-5-yl)ethynyl)-5-(methylamino)-1H-pyrazole-4-carboxamide] | ≤ 100 | –
C=CC(=O)N1C[C@@H](n2nc(C#Cc3cn4ncnc4cc3F)c(C(N)=O)c2NC)C[C@@H]1COC [Example 122, 3-(2-[7-Fluoro-[1,2,4]triazolo[1,5-a]pyridin-6-yl]ethynyl)-1-[(3S,5R)-5-(methoxymethyl)-1-(prop-2-enoyl)pyrrolidin-3-yl]-5-(methylamino)pyrazole-4-carboxamide] | 100 to 1000 | –
C=CC(=O)N1C[C@@H](n2nc(C#Cc3cc4nc(C)n(C)c4cc3Cl)c(C(N)=O)c2NC)C[C@@H]1COC [Example 82, 3-[2-(6-Chloro-1,2-dimethyl-1,3-benzodiazol-5-yl)ethynyl]-1-[(3S,5R)-5-(methoxymethyl)-1-(prop-2-enoyl)pyrrolidin-3-yl]-5-(methylamino)pyrazole-4-carboxamide] | ≤ 100 | –
C=CC(=O)N1C[C@@H](n2nc(C#Cc3ccc4c(c3)ncn4C3CC3)c(C(N)=O)c2NC)C[C@@H]1CF [Example 178, 1-((3S,5R)-1-Acryloyl-5-(fluoromethyl)pyrrolidin-3-yl)-3-((1-cyclopropyl-1H-benzo[d]imidazol-5-yl)ethynyl)-5-(methylamino)-1H-pyrazole-4-carboxamide] | ≤ 100 | –
C=CC(=O)N1C[C@@H](n2nc(C#Cc3cc4ncc(F)cc4cc3Cl)c(C(N)=O)c2NC)C[C@@H]1COC [Example 267, 3-[2-(6-Chloro-3-fluoroquinolin-7-yl)ethynyl]-1-[(3S,5R)-5-(methoxymethyl)-1-(prop-2-enoyl)pyrrolidin-3-yl]-5-(methylamino)pyrazole-4-carboxamide] | ≤ 100 | –
C=CC(=O)N1C[C@@H](n2nc(C#Cc3ccc4nn(C)cc4c3)c(C(N)=O)c2NC)C[C@@H]1COC [Example 9, 1-((3S,5R)-1-acryloyl-5-(methoxymethyl)pyrrolidin-3-yl)-3-((2-methyl-2H-indazol-5-yl)ethynyl)-5-(methylamino)-1H-pyrazole-4-carboxamide] | 100 to 1000 | –
C=CC(=O)N1C[C@@H](n2nc(C#Cc3cc4nc(C)n(CC)c4cn3)c(C(N)=O)c2NC)C[C@@H]1COC [Example 48, 3-(2-[3-Ethyl-2-methylimidazo[4,5-c]pyridin-6-yl]ethynyl)-1-[(3S,5R)-5-(methoxymethyl)-1-(prop-2-enoyl)pyrrolidin-3-yl]-5-(methylamino)pyrazole-4-carboxamide] | 100 to 1000 | –
C=CC(=O)N1C[C@@H](n2nc(C#Cc3cc4nccc(C)c4cc3Cl)c(C(N)=O)c2NC)C[C@@H]1COC [Example 281, 3-[2-(6-chloro-4-methylquinolin-7-yl)ethynyl]-1-[(3S,5R)-5-(methoxymethyl)-1-(prop-2-enoyl)pyrrolidin-3-yl]-5-(methylamino)pyrazole-4-carboxamide] | – | IC50: < 100 nM
C=CC(=O)N1C[C@@H](n2nc(C#Cc3cc4ncc(C5CC5)n4cc3Cl)c(C(N)=O)c2NC)C[C@@H]1COC [Example 261, 3-(2-{6-Chloro-3-cyclopropylimidazo[1,2-a]pyridin-7-yl}ethynyl)-1-[(3S,5R)-5-(methoxymethyl)-1-(prop-2-enoyl)pyrrolidin-3-yl]-5-(methylamino)pyrazole-4-carboxamide] | ≤ 100 | –
C=CC(=O)N1C[C@@H](n2nc(C#Cc3cc4ncn(C5CC5)c4c(F)c3Cl)c(C(N)=O)c2NC)C[C@@H]1COC [Example 147, 3-[2-(6-Chloro-1-cyclopropyl-7-fluoro-1,3-benzodiazol-5-yl)ethynyl]-1-[(3S,5R)-5-(methoxymethyl)-1-(prop-2-enoyl)pyrrolidin-3-yl]-5-(methylamino)pyrazole-4-carboxamide] | ≤ 100 | –
C=CC(=O)N1C[C@@H](n2nc(C#Cc3cc4c(cc3Cl)ncn4[C@H]3CC3(F)F)c(C(N)=O)c2NC)C[C@@H]1COC (single isomer, unassigned) [Example 289] | – | IC50 [1]: > 500 nM
C=CC(=O)N1C[C@@H](n2nc(C#Cc3ccc4c(nc(C)n4CC)c3Cl)c(C(N)=O)c2NC)C[C@@H]1COC [Example 38, 3-[2-(4-chloro-1-ethyl-2-methyl-1,3-benzodiazol-5-yl)ethynyl]-1-[(3S,5R)-5-(methoxymethyl)-1-(prop-2-enoyl)pyrrolidin-3-yl]-5-(methylamino)pyrazole-4-carboxamide] | ≤ 100 | –
C=CC(=O)N1CC[C@H](n2nc(C#Cc3cc4ncn(C5CC5)c4c(F)c3F)c(C(N)=O)c2NC)C1 [Example 171] | ≤ 100 | –
C=CC(=O)N1C[C@@H](n2nc(C#Cc3c(F)cc4c(cnn4C)c3F)c(C(N)=O)c2NC)C[C@@H]1COC [Example 19, 1-((3S,5R)-1-acryloyl-5-(methoxymethyl)pyrrolidin-3-yl)-3-((4,6-difluoro-1-methyl-1H-indazo1-5-yl)ethynyl)-5-(methylamino)-1H-1-pyrazole-4-carboxamide] | ≤ 100 | –
C=CC(=O)N1C[C@@H](n2nc(C#Cc3cc4ncn(C5CC5)c4cc3F)c(C(N)=O)c2NC)C[C@@H]1C [Example 169, 1-((3S,5S)-1-Acryloyl-5-methylpynolidin-3-yl)-3-((1-cyclopropyl-6-fluoro-1H-benzo[d]imidazol-5-yl)ethynyl)-5-(methylamino)-1H-pyrazole-4-carboxamide] | ≤ 100 | –
C=CC(=O)N1C[C@@H](n2nc(C#Cc3cc4ncc(Cl)cc4cc3F)c(C(N)=O)c2NC)C[C@@H]1COC [Example 256, 3-[2-(3-Chloro-6-fluoroquinolin-7-yl)ethynyl]-1-[(3S,5R)-5-(methoxymethyl)-1-(prop-2-enoyl)pyrrolidin-3-yl]-5-(methylamino)pyrazole-4-carboxamide] | ≤ 100 | –
C=CC(=O)N1C[C@@H](n2nc(C#Cc3cnc4c(c3)ncn4C)c(C(N)=O)c2NC)C[C@@H]1COC [Example 23, 1-((3S,5R)-1-acryloyl-5-(methoxymethyl)pyrrolidin-3-yl)-3-((3-methyl-3H-imidazo[4,5-b]pyridin-6-yl)ethynyl)-5-(methylamino)-1H-pyrazole—4-carboxamide] | ≤ 100 | –
C=CC(=O)N1CC[C@H](n2nc(C#Cc3cc4ncn(C)c4c(F)c3F)c(C(N)=O)c2NC)C1 [Example 145, 3-[2-(6,7-Difluoro-1-methyl-1,3-benzodiazol-5-yl)ethynyl]-5-(methylamino)-1-[(3S)-1-(prop-2-enoyl)pyrrolidin-3-yl]pyrazole-4-carboxamide] | ≤ 100 | –
C=CC(=O)N1C[C@@H](n2nc(C#Cc3c(F)cc4c(ncn4C)c3F)c(C(N)=O)c2NC)C[C@@H]1COC(F)(F)F [Example 84] | ≤ 100 | –
C=CC(=O)N1C[C@@H](n2nc(C#Cc3cc4nc(C)n(C5CC5)c4cc3Cl)c(C(N)=O)c2NC)C[C@@H]1[C@@H](C)O [Example 220, 1-((3S,5R)-1-Acryloyl-5-((R)-1-hydroxyethyl)pyrrolidin-3-yl)-3-((6-chloro-1-cyclopropyl-2-methyl-1H-benzo[d]imidazol-5-yl)ethynyl)-5-(methylamino)-1H-pyrazole-4-carboxamide] | ≤ 100 | –
[2H]C([2H])([2H])OC[C@H]1C[C@H](n2nc(C#Cc3cc4ncn(CC)c4cc3Cl)c(C(N)=O)c2NC)CN1C(=O)C=C [Example 138, 1-((3S,5R)-1-acryloyl-5-((methoxy-d3)methyl)pyrrolidin-3-yl)-3-((6-chloro-1-ethyl-1H-benzo[d]imidazol-5-yl)ethynyl)-5-(methylamino)-1H-pyrazole-4-carboxamide] | ≤ 100 | –
C=CC(=O)N1CC[C@H](n2nc(C#Cc3cc4ncn(CC)c4c(F)c3Cl)c(C(N)=O)c2NC)C1 [Example 141, 3-[2-(6-Chloro-1-ethyl-7-fluoro-1,3-benzodiazol-5-yl)ethynyl]-5-(methylamino)-1-[(3S)-1-(prop-2-enoyl)pyrrolidin-3-yl]pyrazole-4-carboxamide] | ≤ 100 | –
C=CC(=O)N1C[C@@H](n2nc(C#Cc3cc(OC)c4c(C5CC5)cnn4c3)c(C(N)=O)c2NC)C[C@@H]1COC [Example 284, 3-(2-{3-Cyclopropyl-4-methoxypyrazolo[1,5-a]pyridin-6-yl}ethynyl)-1-[(3S,5R)-5-(methoxymethyl)-1-(prop-2-enoyl)pyrrolidin-3-yl]-5-(methylamino)pyrazole-4-carboxamide] | 100 to 1000 | –
C=CC(=O)N1C[C@@H](n2nc(C#Cc3ccc4c(c3)ncn4C3CC3)c(C(N)=O)c2N)C[C@@H]1COC(F)F [Example 212, 5-Amino-3-[2-(1-cyclopropyl-1,3-benzodiazol-5-yl)ethynyl]-1-[(3S,5R)-5-[(difluoromethoxy)methyl]-1-(prop-2-enoyl)pyrrolidin-3-yl]pyrazole-4-carboxamide] | ≤ 100 | –
C=CC(=O)N1C[C@@H](n2nc(C#Cc3c(F)cc4c(ncn4C4CC4)c3F)c(C(N)=O)c2NC)C[C@@H]1CF [Example 179, 1-((3S,5R)-1-Acryloyl-5-(fluoromethyl)pyrrolidin-3-yl)-3-((1-cyclopropyl-4,6-difluoro-1H-benzo[d]imidazol-5-yl)ethynyl)-5-(methylamino)-1H-pyrazole-4-carboxamide] | ≤ 100 | –
